The record followed here is the supplement of paper PMC12463676, “Small-molecule dissolution of stress granules by redox modulation benefits ALS models” (Nature Chemical Biology, 2025).

Compound in experiment [1]: NC(=O)CCCCC1CCSS1 [lipoamide]
Description: thermal stability z-score vs DMSO; higher = more thermally stabilized by treatment. Conditions: HeLa, lipoamide concentration 100 µM. The procedure:
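Cellular thermal proteome profiling in HeLa cells. Cells were treated with 100 µM lipoamide for 1 h, with or without 1 mM arsenate for a further 1 h, then heated to ten temperatures (37-66.3 °C), and soluble protein was quantified by TMT mass spectrometry relative to 0.1% DMSO controls. The thermal stability score (sum of log2 fold changes minus the abundance score) was transformed to a z-score; mean of n = 3 experiments.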

Compound in experiment [2]: O=[As]([O-])(O)O.[K+] [potassium arsenate]
The description is as above. Conditions: HeLa; arsenate concentration 1 mM. The procedure: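 Cellular thermal proteome profiling in HeLa cells treated with 1 mM arsenate for 1 h (DMSO pretreatment), heated to ten temperatures (37-66.3 °C). Soluble protein was quantified by TMT mass spectrometry relative to DMSO controls; the thermal stability score was transformed to a z-score; mean of n = 3 experiments.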

Where [3] appears, read: arsenate co-treatment: 1 mM arsenate 1 h.
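Further: each temperature applied for 3 min, abundance score taken as mean log2 fold change at the two lowest temperatures, z-score obtained by mean subtraction and division by SD.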

UniProt P42892, sequence (P42892 whole entry): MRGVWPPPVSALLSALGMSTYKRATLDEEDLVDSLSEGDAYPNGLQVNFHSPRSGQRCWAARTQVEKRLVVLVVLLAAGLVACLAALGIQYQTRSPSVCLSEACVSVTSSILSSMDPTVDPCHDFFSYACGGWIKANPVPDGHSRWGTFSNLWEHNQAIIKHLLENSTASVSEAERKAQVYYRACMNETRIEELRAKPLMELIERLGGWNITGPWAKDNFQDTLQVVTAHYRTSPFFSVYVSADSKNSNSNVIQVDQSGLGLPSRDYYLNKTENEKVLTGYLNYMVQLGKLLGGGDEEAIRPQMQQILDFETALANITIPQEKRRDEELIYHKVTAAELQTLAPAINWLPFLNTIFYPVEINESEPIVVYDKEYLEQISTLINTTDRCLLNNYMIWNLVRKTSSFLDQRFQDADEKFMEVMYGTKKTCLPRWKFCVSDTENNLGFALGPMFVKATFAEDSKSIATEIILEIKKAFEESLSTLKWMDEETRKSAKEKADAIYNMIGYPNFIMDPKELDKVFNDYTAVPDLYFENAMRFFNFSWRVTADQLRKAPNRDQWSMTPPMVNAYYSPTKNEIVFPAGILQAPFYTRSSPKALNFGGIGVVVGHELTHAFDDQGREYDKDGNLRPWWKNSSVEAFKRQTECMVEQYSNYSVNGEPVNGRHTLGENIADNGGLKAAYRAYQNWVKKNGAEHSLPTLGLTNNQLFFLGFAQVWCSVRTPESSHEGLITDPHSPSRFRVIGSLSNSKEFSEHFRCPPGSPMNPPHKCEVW
UniProt O00422, sequence (O00422 whole entry): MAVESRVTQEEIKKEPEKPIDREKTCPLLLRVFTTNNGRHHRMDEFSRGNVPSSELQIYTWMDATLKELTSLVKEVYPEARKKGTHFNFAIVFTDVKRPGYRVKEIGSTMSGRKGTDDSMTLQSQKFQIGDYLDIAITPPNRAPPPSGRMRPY
UniProt Q92520, sequence (Q92520 whole entry): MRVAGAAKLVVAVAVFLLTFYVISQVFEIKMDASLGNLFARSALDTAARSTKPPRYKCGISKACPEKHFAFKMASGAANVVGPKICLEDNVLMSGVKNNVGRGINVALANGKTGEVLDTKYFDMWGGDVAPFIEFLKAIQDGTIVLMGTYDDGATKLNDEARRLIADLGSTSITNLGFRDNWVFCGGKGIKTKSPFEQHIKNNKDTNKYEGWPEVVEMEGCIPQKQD
UniProt P41252, sequence (P41252 whole entry): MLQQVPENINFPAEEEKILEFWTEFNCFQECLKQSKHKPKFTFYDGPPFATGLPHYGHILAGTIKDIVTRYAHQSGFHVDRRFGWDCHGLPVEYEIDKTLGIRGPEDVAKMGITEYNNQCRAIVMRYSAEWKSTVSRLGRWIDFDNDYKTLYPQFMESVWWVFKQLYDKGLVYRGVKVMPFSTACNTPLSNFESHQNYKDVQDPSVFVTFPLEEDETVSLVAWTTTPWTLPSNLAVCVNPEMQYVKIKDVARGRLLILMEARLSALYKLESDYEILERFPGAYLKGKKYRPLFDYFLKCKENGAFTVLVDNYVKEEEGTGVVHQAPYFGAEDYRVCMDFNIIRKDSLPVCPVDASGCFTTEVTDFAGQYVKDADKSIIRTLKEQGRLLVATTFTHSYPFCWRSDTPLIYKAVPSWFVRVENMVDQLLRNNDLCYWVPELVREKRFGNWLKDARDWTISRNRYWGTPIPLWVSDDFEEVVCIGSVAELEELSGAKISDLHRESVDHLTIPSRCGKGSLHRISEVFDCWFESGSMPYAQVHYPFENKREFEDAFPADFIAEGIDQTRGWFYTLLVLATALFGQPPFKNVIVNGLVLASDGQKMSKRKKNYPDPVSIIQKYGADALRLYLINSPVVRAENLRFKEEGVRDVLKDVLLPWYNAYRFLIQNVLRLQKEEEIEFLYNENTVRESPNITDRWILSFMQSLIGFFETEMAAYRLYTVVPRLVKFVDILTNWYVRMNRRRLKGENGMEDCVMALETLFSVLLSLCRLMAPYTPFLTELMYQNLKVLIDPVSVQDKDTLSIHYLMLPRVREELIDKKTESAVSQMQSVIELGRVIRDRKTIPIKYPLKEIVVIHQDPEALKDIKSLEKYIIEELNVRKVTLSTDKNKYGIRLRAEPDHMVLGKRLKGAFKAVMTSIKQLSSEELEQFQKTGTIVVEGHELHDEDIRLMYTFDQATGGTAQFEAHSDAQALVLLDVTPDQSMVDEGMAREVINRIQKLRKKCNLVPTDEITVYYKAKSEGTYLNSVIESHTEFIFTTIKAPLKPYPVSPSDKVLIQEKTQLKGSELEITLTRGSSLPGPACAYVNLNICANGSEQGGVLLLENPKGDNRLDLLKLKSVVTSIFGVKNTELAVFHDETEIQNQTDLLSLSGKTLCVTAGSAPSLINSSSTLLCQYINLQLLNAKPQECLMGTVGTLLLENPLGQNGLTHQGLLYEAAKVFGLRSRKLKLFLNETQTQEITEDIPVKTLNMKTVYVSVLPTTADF
UniProt Q9BUF5, sequence (Q9BUF5 whole entry): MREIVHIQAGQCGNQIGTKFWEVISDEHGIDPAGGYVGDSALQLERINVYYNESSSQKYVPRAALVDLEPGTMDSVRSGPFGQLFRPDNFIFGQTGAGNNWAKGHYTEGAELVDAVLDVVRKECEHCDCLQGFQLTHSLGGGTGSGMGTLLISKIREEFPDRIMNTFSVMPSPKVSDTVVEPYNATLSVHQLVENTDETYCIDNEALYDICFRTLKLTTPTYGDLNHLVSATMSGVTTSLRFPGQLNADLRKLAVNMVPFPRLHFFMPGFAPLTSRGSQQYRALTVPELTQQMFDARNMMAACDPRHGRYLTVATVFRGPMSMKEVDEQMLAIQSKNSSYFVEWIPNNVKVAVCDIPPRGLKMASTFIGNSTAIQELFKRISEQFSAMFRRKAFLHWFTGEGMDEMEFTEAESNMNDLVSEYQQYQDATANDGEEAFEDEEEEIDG
UniProt Q02218, sequence (Q02218 whole entry): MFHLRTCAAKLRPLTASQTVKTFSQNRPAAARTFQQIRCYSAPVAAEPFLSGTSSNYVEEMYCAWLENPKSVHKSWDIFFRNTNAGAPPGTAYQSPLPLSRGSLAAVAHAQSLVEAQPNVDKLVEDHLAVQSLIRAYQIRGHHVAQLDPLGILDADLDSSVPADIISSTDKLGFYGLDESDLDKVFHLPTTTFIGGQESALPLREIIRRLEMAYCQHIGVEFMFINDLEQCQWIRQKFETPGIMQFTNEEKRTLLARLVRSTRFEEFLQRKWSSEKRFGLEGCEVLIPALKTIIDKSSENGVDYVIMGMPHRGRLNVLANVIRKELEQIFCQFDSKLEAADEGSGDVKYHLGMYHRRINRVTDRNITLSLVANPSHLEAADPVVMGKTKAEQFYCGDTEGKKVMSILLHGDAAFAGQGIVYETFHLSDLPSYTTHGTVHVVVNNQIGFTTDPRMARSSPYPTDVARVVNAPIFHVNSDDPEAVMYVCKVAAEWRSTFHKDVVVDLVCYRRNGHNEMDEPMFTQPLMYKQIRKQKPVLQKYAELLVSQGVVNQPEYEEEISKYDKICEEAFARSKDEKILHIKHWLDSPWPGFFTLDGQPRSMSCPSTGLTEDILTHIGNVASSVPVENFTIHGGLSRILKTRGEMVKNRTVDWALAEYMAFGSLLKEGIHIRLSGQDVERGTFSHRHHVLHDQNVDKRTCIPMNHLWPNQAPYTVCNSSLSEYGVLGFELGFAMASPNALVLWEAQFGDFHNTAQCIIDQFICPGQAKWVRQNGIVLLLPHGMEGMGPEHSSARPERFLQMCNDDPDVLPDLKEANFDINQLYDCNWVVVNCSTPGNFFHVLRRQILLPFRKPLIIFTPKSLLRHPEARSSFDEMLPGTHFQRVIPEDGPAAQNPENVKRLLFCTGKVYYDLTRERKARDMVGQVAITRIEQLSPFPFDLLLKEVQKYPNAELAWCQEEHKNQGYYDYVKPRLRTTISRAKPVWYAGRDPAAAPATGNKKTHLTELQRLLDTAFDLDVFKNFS
UniProt Q8NI22, sequence (Q8NI22 whole entry): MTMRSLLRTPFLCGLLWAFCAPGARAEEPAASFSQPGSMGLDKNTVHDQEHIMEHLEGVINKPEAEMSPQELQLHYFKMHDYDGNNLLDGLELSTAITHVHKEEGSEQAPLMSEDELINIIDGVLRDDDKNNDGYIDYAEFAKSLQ
UniProt Q13573, sequence (Q13573 whole entry): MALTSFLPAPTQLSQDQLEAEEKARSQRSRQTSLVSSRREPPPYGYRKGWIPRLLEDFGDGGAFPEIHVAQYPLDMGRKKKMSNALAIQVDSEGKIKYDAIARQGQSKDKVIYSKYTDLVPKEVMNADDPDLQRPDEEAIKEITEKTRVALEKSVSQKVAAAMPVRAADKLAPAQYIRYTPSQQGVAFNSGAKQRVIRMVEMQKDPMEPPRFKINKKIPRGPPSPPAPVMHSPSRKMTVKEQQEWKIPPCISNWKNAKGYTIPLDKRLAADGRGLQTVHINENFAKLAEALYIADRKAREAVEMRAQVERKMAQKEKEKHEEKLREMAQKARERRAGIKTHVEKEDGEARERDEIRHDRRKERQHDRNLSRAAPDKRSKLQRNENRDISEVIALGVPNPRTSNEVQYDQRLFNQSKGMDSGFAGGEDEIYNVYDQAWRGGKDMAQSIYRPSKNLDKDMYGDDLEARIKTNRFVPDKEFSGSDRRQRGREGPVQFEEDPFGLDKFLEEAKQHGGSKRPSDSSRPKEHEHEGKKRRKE
UniProt Q7Z4G4, sequence (Q7Z4G4 whole entry): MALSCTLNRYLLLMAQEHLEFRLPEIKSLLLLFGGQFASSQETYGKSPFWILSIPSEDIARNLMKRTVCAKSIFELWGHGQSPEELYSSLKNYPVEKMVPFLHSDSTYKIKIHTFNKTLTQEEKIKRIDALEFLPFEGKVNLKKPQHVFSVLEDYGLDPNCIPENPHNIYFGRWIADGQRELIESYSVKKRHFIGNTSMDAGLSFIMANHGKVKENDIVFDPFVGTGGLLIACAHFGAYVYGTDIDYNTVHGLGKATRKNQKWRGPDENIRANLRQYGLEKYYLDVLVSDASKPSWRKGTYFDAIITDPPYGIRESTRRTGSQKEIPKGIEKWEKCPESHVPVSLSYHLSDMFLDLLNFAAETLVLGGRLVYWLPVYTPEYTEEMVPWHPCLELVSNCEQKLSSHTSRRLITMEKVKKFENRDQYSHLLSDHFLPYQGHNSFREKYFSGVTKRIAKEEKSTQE

For the target NUP85 (UniProt Q9BW27), the thermal stability z-score came to 0.16 in experiment [1] (setting [3]), 0.113 in experiment [1] (arsenate co-treatment: none) and 0.613 in experiment [2].
For SLC20A1 (UniProt Q8WUM9) the same measures were 0.249, 0.0269 and -0.23.
For EHD4 (UniProt Q9H223) the same measures were 0.435, 0.326 and -0.477.
For TBC1D2 (UniProt Q9BYX2) the same measures were -0.151, 0.0824 and 0.225.
In the case of MARC2 (UniProt Q969Z3), the thermal stability z-score in experiment [1] (setting [3]) worked out at 0.235; in experiment [1] (arsenate co-treatment: none), 0.311; in experiment [2], 0.168.
For TRMT11 (UniProt Q7Z4G4), in that order: 0.259, -0.151 and -0.518.
In the case of MCFD2 (UniProt Q8NI22), the thermal stability z-score was -0.221 in experiment [1] (setting [3]), -0.109 in experiment [1] (arsenate co-treatment: none) and -0.565 in experiment [2].
For EIF4G1 (UniProt Q04637) the same measures were -0.164, -0.0562 and -0.0263.
For FAM3C (UniProt Q92520) the same measures were -1.06, -0.89 and 0.805.
For VMP1 (UniProt Q96GC9), in that order: -1.19, -1.69 and -0.372.
As for SAP18 (UniProt O00422), the thermal stability z-score in experiment [1] (setting [3]) was 0.465; in experiment [1] (arsenate co-treatment: none) it was 0.0358; in experiment [2], 0.519.
For SERF2 (UniProt P84101) the same measures were 0.715, 0.165 and -0.113.
For CCDC85B (UniProt Q15834), in that order: 0.574, 0.223 and 0.125.
Regarding TUBB6 (UniProt Q9BUF5), the thermal stability z-score was -0.348 in experiment [1] (setting [3]), 0.0923 in experiment [1] (arsenate co-treatment: none) and 0.532 in experiment [2].
On to ECE1 (UniProt P42892), for which the thermal stability z-score was -0.298 in experiment [1] (setting [3]), -0.225 in experiment [1] (arsenate co-treatment: none) and -0.191 in experiment [2].
As to DNAJC13 (UniProt O75165), the values for the thermal stability z-score in experiment [1] (setting [3]), in experiment [1] (arsenate co-treatment: none) and in experiment [2] were -0.118, -0.226 and 0.201, respectively.
With STAT1 (UniProt P42224), the thermal stability z-score in experiment [1] (setting [3]) is -0.65; in experiment [1] (arsenate co-treatment: none) it was -0.206; in experiment [2], 0.502.
For IWS1 (UniProt Q96ST2), in that order: -0.094, 0.636 and 0.949.
For TOP1 (UniProt P11387) the same measures were 0.0566, 0.449 and -0.734.
For OGDH (UniProt Q02218), in that order: 0.182, 0.151 and -0.531.
On to IARS (UniProt P41252), for which the thermal stability z-score in experiment [1] (setting [3]) is -0.197; in experiment [1] (arsenate co-treatment: none), -0.0191; in experiment [2] it was 0.763.
For SNW1 (UniProt Q13573) the same measures were -0.497, -0.726 and -0.395.
With ACTR8 (UniProt Q9H981), the thermal stability z-score was -0.154 in experiment [1] (setting [3]), -0.0898 in experiment [1] (arsenate co-treatment: none) and -0.347 in experiment [2].
